According to patent US20110053832A1, “NATURAL ANTIMICROBIAL COMPOSITION” (KRAFT FOODS GLOBAL BRANDS LLC, priority 2009, published 2011):

How the values were obtained:
Generic Yeast [1] = assay: Inoculation (challenge) study in creamy salad dressing, generic yeast; assay type: cell-based; conditions: creamy salad dressing emulsion; for Treatment Performance Generic Yeast LDIC (Log Difference in micro levels as compared to the Initial Count): negative values represent a degree of inhibition; for Treatment Performance Generic Yeast LDPC (Log Difference in micro levels as compared to the Positive Control without treatment): negative values represent degree of inhibition
Text: (§1) Turning now to the table, provided herein are formulations of a natural antimicrobial tested using a water continuous emulsion with a creamy texture and flavor, such as a creamy style salad dressing. It is noted that not only other types of water continuous emulsions, but also many other types of foods would also benefit from the antimicrobial nature of these formulations. As shown, the emulsion is standardized for a ratio of acid-to-moisture and salt-to-moisture values of a minimum of about 1.5 and about 4.8, respectively. When the emulsion was inoculated individually with cocktails of lactic acid bacteria, general yeast, or acid-tolerant yeast (such as Z. bailii) at approximately 4.0 logs, the emulsion spoils with microbial growth up to 7.0 logs. The overall pH of the present formulations can be anywhere from about 2.0 to about 6.0. Lower pH can often inhibit microbial growth, irrespective of other antimicrobial agents present. In the present formulations however, it was observed that the presence of antimicrobial agents such as cultured milks and/or organic acid salts were effective antimicrobial inhibitors, even at higher pH levels. High concentrations of undissociated organic acids can produce greater microbial inhibition. Increasing pH is associated with decreasing concentrations of undissociated acid. Thus, the microbial inhibition in a food that approaches a pH of 6.0 is unexpected.
(§2) The label LDPC indicates the Log Difference in micro levels as compared to the Positive Control without treatment (negative values represent degree of inhibition). The label LDIC indicates the Log Difference in micro levels as compared to the Initial Count or micro level of that treatment (negative values represent a degree of inhibition).
(§3) Two levels of Ca-Acetate alone and in combination with two levels of nisin and a nisin containing cultured ingredient were compared to determine their effect on typical spoilage (generic) yeast, the preservative resistant yeast, Z. bailii, and Lactobacillus.
(§4) Specifically, the samples were subjected to three different inocula (at log CFU 3-4) that contained microorganisms previously shown to spoil salad dressing. These included a cocktail of seven strains comprising various genera of yeast not known to be preservative resistant, a three strain cocktail of the preservative resistant Zygosaccharomyces bailii, and a three strain cocktail of Lactobacillus spp. (L. plantarum, L. fermentum, L. buchneri). The sample was then incubated at 22 degrees Celsius, and tested weekly for four weeks for the presence of these microorganisms.

Lactobacillus [2] = assay: Inoculation (challenge) study in creamy salad dressing, Lactobacillus / lactic acid bacteria; assay type: cell-based, Lactobacillus spp. (L. plantarum, L. fermentum, L. buchneri); conditions: for Treatment Performance Lactobacillus LDIC (Log Difference in micro levels as compared to the Initial Count) / Treatment Performance Lactobacillus LDPC (Log Difference in micro levels as compared to the Positive Control without treatment): creamy salad dressing emulsion; for Treatment Performance Lactobacillus LDIC (Log Difference in micro levels as compared to the Initial Count): negative values represent a degree of inhibition; for Treatment Performance Lactobacillus LDPC (Log Difference in micro levels as compared to the Positive Control without treatment): negative values represent degree of inhibition
Text: as §1, §2, §3, §4

Z. bailii = assay: Inoculation (challenge) study in creamy salad dressing, acid-tolerant yeast Z. bailii; assay type: cell-based, Zygosaccharomyces bailii; conditions: for inhibition of Z. bailii (in words): Experiments 1-4; for Treatment Performance Z. bailii LDIC (Log Difference in micro levels as compared to the Initial Count) / Treatment Performance Z. bailii LDPC (Log Difference in micro levels as compared to the Positive Control without treatment): creamy salad dressing emulsion; for Treatment Performance Z. bailii LDIC (Log Difference in micro levels as compared to the Initial Count): negative values represent a degree of inhibition; for Treatment Performance Z. bailii LDPC (Log Difference in micro levels as compared to the Positive Control without treatment): negative values represent degree of inhibition
Text: as §1, §2, §3, §4

Generic Yeast [3] = assay: Inoculation (challenge) study in creamy salad dressing, generic yeast; assay type: cell-based; conditions: Experiments 1-4
Lactobacillus [4] = assay: Inoculation (challenge) study in creamy salad dressing, Lactobacillus / lactic acid bacteria; assay type: cell-based, Lactobacillus spp. (L. plantarum, L. fermentum, L. buchneri); conditions: Experiments 1-4
[5] = listed as three percent Ca-Acetate
[6] = listed as Three percent Na-Acetate

CC(=O)[O-].CC(=O)[O-].[Ca+2] [3% Ca acetate, calcium (Ca) acetate]
Treatment Performance Generic Yeast LDIC (Log Difference in micro levels as compared to the Initial Count) (Generic Yeast [1]): −1 Log
Treatment Performance Generic Yeast LDIC (Log Difference in micro levels as compared to the Initial Count) (Generic Yeast [1]; listed as Ca acetate (high)): −2 Log
Treatment Performance Generic Yeast LDPC (Log Difference in micro levels as compared to the Positive Control without treatment) (Generic Yeast [1]): −3 Log
Treatment Performance Generic Yeast LDPC (Log Difference in micro levels as compared to the Positive Control without treatment) (Generic Yeast [1]; listed as Ca acetate (high)): −4 Log
inhibition of lactic acid bacteria / Lactobacillus (in words) (Lactobacillus [2]; Experiments 1-4): inhibited the growth
Treatment Performance Lactobacillus LDIC (Log Difference in micro levels as compared to the Initial Count) (Lactobacillus [2]): −2.5 Log
Treatment Performance Lactobacillus LDIC (Log Difference in micro levels as compared to the Initial Count) (Lactobacillus [2]; listed as Ca acetate (high)): 0.5 Log
Treatment Performance Lactobacillus LDPC (Log Difference in micro levels as compared to the Positive Control without treatment) (Lactobacillus [2]): −2.5 Log
Treatment Performance Lactobacillus LDPC (Log Difference in micro levels as compared to the Positive Control without treatment) (Lactobacillus [2]; listed as Ca acetate (high)): 1.5 Log
inhibition of Z. bailii (in words) (Z. bailii; listed as 3 percent Ca-Acetate): needed to inhibit
inhibition of Z. bailii (in words) (Z. bailii; [5]): but not Z. bailii
Treatment Performance Z. bailii LDIC (Log Difference in micro levels as compared to the Initial Count) (Z. bailii): 1.5 Log
Treatment Performance Z. bailii LDIC (Log Difference in micro levels as compared to the Initial Count) (Z. bailii; listed as Ca acetate (high)): 0.5 Log
Treatment Performance Z. bailii LDPC (Log Difference in micro levels as compared to the Positive Control without treatment) (Z. bailii): 0.5 Log
Treatment Performance Z. bailii LDPC (Log Difference in micro levels as compared to the Positive Control without treatment) (Z. bailii; listed as Ca acetate (high)): −1.5 Log
inhibition of general yeast (in words) (Generic Yeast [3]; [5]): inhibited the growth

CC(=O)[O-].[Na+] [3% Na acetate, sodium (Na) acetate]
Treatment Performance Generic Yeast LDIC (Log Difference in micro levels as compared to the Initial Count) (Generic Yeast [1]): −3.5 Log
Treatment Performance Generic Yeast LDIC (Log Difference in micro levels as compared to the Initial Count) (Generic Yeast [1]; listed as 3% Na Ac): 1 Log
Treatment Performance Generic Yeast LDPC (Log Difference in micro levels as compared to the Positive Control without treatment) (Generic Yeast [1]): 0 Log
Treatment Performance Generic Yeast LDPC (Log Difference in micro levels as compared to the Positive Control without treatment) (Generic Yeast [1]; listed as 3% Na Ac): −0.5 Log
Treatment Performance Lactobacillus LDIC (Log Difference in micro levels as compared to the Initial Count) (Lactobacillus [2]): −3.5 Log
Treatment Performance Lactobacillus LDPC (Log Difference in micro levels as compared to the Positive Control without treatment) (Lactobacillus [2]): 0 Log
inhibition of Z. bailii (in words) (Z. bailii; listed as 3 percent Na-Acetate): significant antimycotic inhibition
inhibition of Z. bailii (in words) (Z. bailii; [6]): inhibited all of the tested spoilage organisms
Treatment Performance Z. bailii LDIC (Log Difference in micro levels as compared to the Initial Count) (Z. bailii): −0.5 Log
Treatment Performance Z. bailii LDIC (Log Difference in micro levels as compared to the Initial Count) (Z. bailii; listed as 3% Na Ac): −1 Log
Treatment Performance Z. bailii LDPC (Log Difference in micro levels as compared to the Positive Control without treatment) (Z. bailii): −2 Log
Treatment Performance Z. bailii LDPC (Log Difference in micro levels as compared to the Positive Control without treatment) (Z. bailii; listed as 3% Na Ac): −3 Log
inhibition of general yeast (in words) (Generic Yeast [3]; listed as 3 percent Na-Acetate): did not inhibit
inhibition of general yeast (in words) (Generic Yeast [3]; [6]): inhibited all of the tested spoilage organisms
inhibition of lactic acid bacteria / Lactobacillus (in words) (Lactobacillus [4]; listed as 3 percent Na-Acetate): did not inhibit
inhibition of lactic acid bacteria / Lactobacillus (in words) (Lactobacillus [4]; [6]): inhibited all of the tested spoilage organisms

CC(=O)[O-].CC(=O)[O-].[Ca+2] [Ca acetate (mid), calcium (Ca) acetate]
Treatment Performance Generic Yeast LDIC (Log Difference in micro levels as compared to the Initial Count) (Generic Yeast [1]): −0.5 Log
Treatment Performance Generic Yeast LDPC (Log Difference in micro levels as compared to the Positive Control without treatment) (Generic Yeast [1]): −2.5 Log
Treatment Performance Lactobacillus LDIC (Log Difference in micro levels as compared to the Initial Count) (Lactobacillus [2]): −1.5 Log
Treatment Performance Lactobacillus LDPC (Log Difference in micro levels as compared to the Positive Control without treatment) (Lactobacillus [2]): −0.5 Log
Treatment Performance Z. bailii LDIC (Log Difference in micro levels as compared to the Initial Count) (Z. bailii): 2 Log
Treatment Performance Z. bailii LDPC (Log Difference in micro levels as compared to the Positive Control without treatment) (Z. bailii): 0.5 Log
inhibition of general yeast (in words) (Generic Yeast [3]; listed as 1.5 percent Ca-Acetate): needed to inhibit

Nisin [Nisin (high)]
Treatment Performance Generic Yeast LDIC (Log Difference in micro levels as compared to the Initial Count) (Generic Yeast [1]): 3 Log
Treatment Performance Generic Yeast LDPC (Log Difference in micro levels as compared to the Positive Control without treatment) (Generic Yeast [1]): 1.5 Log
Treatment Performance Lactobacillus LDIC (Log Difference in micro levels as compared to the Initial Count) (Lactobacillus [2]): 0 Log
Treatment Performance Lactobacillus LDPC (Log Difference in micro levels as compared to the Positive Control without treatment) (Lactobacillus [2]): −2.5 Log
Treatment Performance Z. bailii LDIC (Log Difference in micro levels as compared to the Initial Count) (Z. bailii): 2 Log
Treatment Performance Z. bailii LDPC (Log Difference in micro levels as compared to the Positive Control without treatment) (Z. bailii): 0 Log

Nisin [Nisin (mid)]
Treatment Performance Generic Yeast LDIC (Log Difference in micro levels as compared to the Initial Count) (Generic Yeast [1]): 3.5 Log
Treatment Performance Generic Yeast LDPC (Log Difference in micro levels as compared to the Positive Control without treatment) (Generic Yeast [1]): 1.5 Log
Treatment Performance Lactobacillus LDIC (Log Difference in micro levels as compared to the Initial Count) (Lactobacillus [2]): −1 Log
Treatment Performance Lactobacillus LDPC (Log Difference in micro levels as compared to the Positive Control without treatment) (Lactobacillus [2]): −2.5 Log
Treatment Performance Z. bailii LDIC (Log Difference in micro levels as compared to the Initial Count) (Z. bailii): 2 Log
Treatment Performance Z. bailii LDPC (Log Difference in micro levels as compared to the Positive Control without treatment) (Z. bailii): 0 Log
